The record followed here is patent US20200061150A1, “METHOD OF INDUCING SELECTIVE PROSTATE GLANDULAR PHARMACO-ABLATION WITH SPARING OF NERVES AND PRESERVATION OF SEXUAL FUNCTION” (Nymox Corporation, priority 2018, published 2020).

Counter-ions that a name gives are not always drawn. Like-named read-outs stand apart in the source and are kept apart here. No end group written: not given here.

In data set [1] the test system is rat prostate glandular epithelium, nerves, stroma, vessels. Briefly: Prostate histology (H&E, Bielschowsky silver, TUNEL) in treated rats. The data set is classed as in vivo, Sprague-Dawley rats. On the procedure: (§1) Two month old Sprague-Dawley rats (n=268) weighing 200 to 300 g, housed in groups of 2-5 per cage at room temperature (24-26° C.), with standard unrestricted diet and water, were anesthetized with ether and underwent open laparoscopic injections, using sterile precautions and sterile techniques, without antibiotics, of 0.3 mL of FT 0.1-2.0 mg/mL in phosphate buffered saline (PBS) pH 7.4, administered by #26 gauge sterile needles attached to sterile syringes. The animals received a “whole gland” injection in an amount roughly 20 times the amount previously administered to humans. […] The rats were daily observed and painlessly sacrificed after post-treatment intervals of 24 hours to 12 months under either anesthesia.
Prostate glands were removed, bisected, and immersed in 10% formalin solution, and subsequently embedded in paraffin, sectioned, and stained with (1) hematoxylin-eosin (H&E); (2) Bielschowsky silver method for nerve fibers; and (3) immunohistochemical TUNEL staining. TUNEL (Terminal deoxynucleotidyl transferase (dUTP) nick end labeling) detects DNA fragmentation by labeling the 3′-hydroxyl termini in the double-stand DNA breaks generated during apoptosis. Prostate cell lines (PC3 and LNCAP) were treated with FT 0.001 or 0.25 mg/mL in 6, 24, and 48 well plates and harvested and pelleted at 0, 12, 24, and 48 hours. […] The same treated cell lines under the same conditions were also stained in vitro after treatment using Annexin V immunofluorescence methods and viewed under ultraviolet light, and cell loss in vitro was assessed quantitatively (Multitox-Fluor, Promega). […]
(§2) Apoptosis was evaluated microscopically in H&E stained sections, including rats sacrificed after 24, 48, and 72 hours, 4-8 days, and 1, 3, 6, and 12 months. […] TUNEL staining was assessed in 21 animals (72 hours; 7 days, post-treatment). Prostate volume (calculated by approximation to a sphere using the mean of 8 perpendicular diameters (2 per section at 90 degrees; on four sections) and calculations of 4/3 π(D/2)^3) were assessed in all animals and all controls. […]

The conditions of data set [2]: in vivo. From the text: (§3) Sub-groups of rats received repeated injections (2×-8×, on a once weekly basis) (Table 1).
The test system of a further data set is rat prostate. Briefly: Prostate volume in rats after intraprostatic (whole gland) injection. The following applies: control injection 0.5 mL HCl in water pH 3.0-5.0, 24 hr-10 days. It counts as in vivo, Sprague-Dawley rats. Here is the method:
as §1, §3, §2

Take “IDQQVLSRIKLEIKRCL [FT, Ile-Asp-Gln-Gln-Val-Leu-Ser-Arg-Ile-Lys-Leu-Glu-Ile-Lys-Arg-Cys-Leu]”: the “nerves and blood vessels” value in data set [1] (all time intervals) is listed as “intact”. The nerve histology result in data set [1] (all time points including 6 months and 1 year) is given as “normal appearing nerves”. In addition, the toxic effects result in data set [2] (dog), in data set [2] (rabbit) and in data set [2] (rat) was “no toxic effects” in each case.
In the case of `Cl` [HCl, reference compound], in data set [1] (HCl pH 3.0-5.0 injected, involving <5% of the cross-sectional area), the “rats with focal ischemic or hemorrhagic infarctions and necrosis” value is listed as 2/12. For the same molecule, the “Prostate Volume mm^3-Mean (SD)” value in the data set on rat prostate is given as 859.7 (278.1) mm^3.
